Test results taken from patent US20260335293A1, “USE OF NOVEL COMPOUND FOR TREATING INTRACTABLE DISEASES” (YJ CERAPEUTICS INC., priority 2023, published 2026).

System: urinary disturbances caused by spinal cord injury (bladder function)
Test: Urinary function (residual urine volume, UBFS, bladder size and weight) in SCI model
Assay type: in vivo, Sprague-Dawley rats
Settings: 5 mg/kg i.p.
Description: To be used as a central nerve injury animal model, a traumatic spinal cord injury (SCI) model was prepared (FIG. 1A). Specifically, 230 to 250 g of male adult Sprague-Dawley rats were anesthetized by intraperitoneal injection of chloral hydrate (500 mg/kg), and then the back and neck regions were shaved, and the spinal cord under the back and neck regions was exposed without damaging the dura mater, and a laminectomy was performed at T9 to T10 levels. To stabilize the spine, the spinous processes of T8 and T11 were fixed, and the spine was damaged by free-falling a 10 g weight from a height of 25 mm using an NYU impactor onto the back surface of the exposed spinal cord and then the rats were left in a temperature and humidity-controlled chamber overnight while covering the muscles and skin. After surgery, the rats were subcutaneously injected with a supplement solution (5 ml, lactated ringer) and injected with antibiotics (gentamicin, 5 mg/kg, intramuscular injection) once daily for 5 days. The body weight, remaining food, and the weight of water were confirmed and recorded for all animals, and the bladder was emptied twice daily by passive bladder massage until reflex micturition was established. At this time, a Sham group was a group that was subjected to only laminectomy without damage.
In order to confirm the effect of YJ102 (Chemical Formula 1), a compound of the present disclosure, on urinary disturbances caused by spinal cord injury, immediately after preparing the traumatic spinal cord injury (SCI) model (FIG. 1A) prepared in Example 1 above, YJ102 was dissolved in DMSO, methyl pyrrolidinone, and water (1:1.5:1) and administered intraperitoneally at 5 mg/kg, and then intraperitoneally administered at 24-hour intervals for 7 days from the next day. Thereafter, the effect of improving bladder functions was analyzed through a residual urine volume test and a urinary bladder function score (UBFS). […] Specifically, in order to determine the amount of urine remaining in the bladder after spinal cord injury, bladder extrusion was performed twice a day by applying pressure to the central bottom portion of the lower abdomen using the index and middle fingers to empty the bladder, and the expelled urine was collected in a catheter and its volume was recorded. In addition, the UBFS was assessed daily using a 0-4 point UBFS (0=total loss of function (manual bladder extrusion 3 times a day, bloody urine), 1=partial restoration of UBF (manual extrusion 2 times a day, bloody urine), 2=partial restoration of UBF (partial/complete release of sphincter spasm, manual extrusion once a day, persistently bloody urine), 3=high restoration (manual extrusion once a day, no bloody urine), and 4=normal UBF) as in the reference (Zeng et al., Spinal Cord (2017) 55:834-839).

CCc1ccc(N(C(=O)COC)c2nc3cc(Cl)ccc3o2)cc1 [YJ102]
bladder size: significantly reduced | bladder weight: significantly reduced | residual urine volume (vs Veh, from the first day of administration): significantly reduced | bladder function restoration analysis using the UBFS (printed as residual urine volume) (vs Vehicle, day 3 and day 7 after SCI): significantly increased
